In patent US10478464B2, “Compositions and methods of use” (priority 2009, dated 2019):

Experiments:
[1] = tested on: HOP-92 lung cancer cell lines; assay: Cell survival, colorimetric MTT assay, HOP-92; format: cell-based, human; conditions: 100 μM, 72 hours
Experimental: 1) Against the lung cancer cell lines: The effect of the racemic mixture of 8-HHA and that of the individual enantiomers, namely S and R enantiomers, were examined on the survival of HOP-92 lung cancer cell lines. The cell viability was examined in the exponential growth phase with 100 μM of 8-HHA for 72 hours using colorimetric MTT assay. In separate assays, HOP-92 cells were treated with different concentrations of the S-enantiomer of 8-HHA ranging from 20-100 μM for 72 hours.

[2] = tested on: PLC/PRF/5 liver cancer cell line; assay: Cell survival, colorimetric MTT assay, PLC/PRF/5; format: cell-based; conditions: 100 μM, 72 hours
Experimental: 2) Against the liver cancer cell lines: The effect of the racemic mixture of 8-HHA and that of the individual enantiomers, namely S and R enantiomers, were examined on survival of PLC/PRF/5 (also referred to as “PLC-5” or “PLC5”), Hep3B and SNU449 (also referred to as “SNU”) liver cancer cell lines. The cell viability was examined in the exponential growth phase with 100 μM of 8-HHA for 72 hours using colorimetric MTT assay. In separate assays, PLC-5 cells were treated with different concentrations of S-enantiomer of 8-HHA ranging from 20-100 μM for 72 hours.

HOP92 cells = assay: Lung cancer xenograft mouse model (HOP92); format: in vivo, BALB/c nu/nu mice; conditions: for Mean ± SEM Tumor Volume (HOP-92): 10 mg/kg IP
From the text: The purpose of this study was to determine anti tumor efficacy of 8-HHA in lung cancer using HOP92 cells.
Animals and care: Thirty BABL/c nude, non-pregnant and nulliparous female mice that are 5-6 weeks old and weighing 16-20 gms were used in this study. BALB/c nu/nu mice were used because they have been historically used in xenograft studies to test anti-tumor efficacy of drug candidates. Mice were acclimatized for minimum 5 days, under same conditions as for the actual test. Mice were housed at room temperature 68±5° F. with room Relative Humidity of 30-70%, air Exchanges per Hour of a minimum of 10 changes per hour, lights exposure of 12-hour light/dark cycle, full spectrum fluorescent lights. The mice were housed in groups in ventilated micro-isolator cages made up of polycarbonate. The mice were using autoclaved laboratory grade bedding and were provided ad libitum with irradiated pellets and autoclaved water. There were no known contaminants present in the feed, water, or bedding expected to interfere with the test data. The laboratory and animal rooms were maintained as limited-access facilities.
Route of injection and dose: 8-HHA was administered through intraperitoneal (IP) injection.
Tumor Induction: The cell line HOP92 were cultured according to recommended specifications at Vanas Oncology as above discussed in Example 20. Cells were trypizinized and counted using the Trypan-blue viability test using a hemocytometer. Cell counts in quadrants of the hemocytometer were converted to a cells/mL value, which will enable isolation of the appropriate number of cells per mouse. Each mouse was inoculated subcutaneously in the right flank region with 0.2 mL of a 50% RPMI/50% Matrigel™ mixture containing a suspension of tumor cells (5×10^6 cells/mouse). Tumors were observed twice weekly until well established. Tumor volume was calculated using the formula: Tumor weight (mg)=(a×b^2/2) where ‘b’ is the smallest diameter and ‘a’ is the largest diameter in millimeters.
Allocation of Animals: Once the established tumors reach a mean calculated volume of approximately 50-100 mg, the mice were randomized, using appropriate software, into treatment groups in order to reduce the variability of tumor sizes per group.
Pre Dose Procedure: Acclimated animals were weighed and observed for clinical signs of toxicity prior to dosing on Day 1.
The first day of dosing is Day 1. On Day 1,8-HHA, and vehicle injections are administered according to the study design in Table 9 below.
Post Dose Procedure: Following treatment, tumor and mouse body weight measurements were recorded twice weekly and gross observation was made at least once daily. Mice with tumors that were not palpable was considered complete regressions. Percentage of mice mortality and time of death were recorded for every group in the study. Animals may be defined as moribund and sacrificed if one or more of the following criteria are met: • Loss of body weight of 20% or greater in a 1 week period. • Mice that inhibit normal physiological function such as eating, drinking, mobility, and ability to urinate and/or defecate. • Tumors that exceed a maximum size of 2000 mg as measured by calipers. • Ulcerated tumors, or tumors that bleed or produce exudates. • Prolonged, excessive diarrhea leading to excessive weight loss (>20%). • Persistent wheezing and respiratory distress. • Prolonged or excessive pain or distress as defined by clinical observations such as: prostration, hunched posture, paralysis/paresis, distended abdomen, ulcerations, abscesses, seizures, and/or hemorrhages.

[3] = tested on: non-small cell lung cancer cell lines (HOP-92, NCI-H460); assay: NCI 60 human tumor cell line screen (MTT), non-small cell lung cancer lines; conditions: 10 μM
Experimental: The screening is a microplate cytotoxicity assays based on a simple colorimetric (MTT) assay which relies on the metabolic reduction of a tetrazolium dye in viable cells to a colored formazan product. A modified protocol was used for the screening of the compound and measures the inhibition of growth of various tumor cell lines. The 8-HHA tested in this assay was at the concentration of 10 μM.

CCCCCCCCC(O)CCCCCCC(=O)O (racemic) [Sample 8-HHA, 8-hydroxy-palmitic acid]
reduced the survival of HOP92 cell lines by [1]: 25% | reduced the survival of PLC-5 cell line by [2]: 52% | Mean ± SEM Tumor Volume (HOP-92) (HOP92 cells; Day 16): 88.78±28.61 mm^3 | Mean ± SEM Tumor Volume (HOP-92) (HOP92 cells; Day 18): 82.02±25.93 mm^3 | decrease in tumor volume vs control group (HOP92 cells; T1 10 mg/Kg, day 16): 58.6% | decrease in tumor volume vs control group (HOP92 cells; T1 10 mg/Kg, day 18): 68.2% | decrease in tumor volume vs control group (HOP92 cells; T2 100 mg/Kg, day 16): 56.5% | decrease in tumor volume vs control group (HOP92 cells; T2 100 mg/Kg, day 18): 73.1% | tumor growth inhibition, in words (HOP92 cells; both T1 (10 mg/Kg) and T2 (100 mg/Kg)): significantly inhibited tumor growth in mice from day 16 | inhibition of growth on non-small cell lung cancer cell lines, in words [3]: remarkable inhibition of growth
